Assay: Study 1: safety assessment (TEAEs, laboratory tests, ECG)
Format: in vivo, human
Details: for QTc interval - change from baseline Borderline: Incr. from B 30-60 ms / QTc interval - change from baseline Prolonged: Incr. from B > 60 ms / QTc interval Prolonged: > 450 ms (m); > 470 ms (f) / QTc interval ≥ 500 ms: TEAE period
Description: Follow-up visits were done on day 6, 8, 14 ± 2, 21 ± 2, 28 ± 2 (Study 1); and day 7, 14 ± 2, 21 ± 2, 28 ± 2 (Study 2). […] Parasitemia was determined microscopically by Giemsa stained thick blood smear by two trained microscopists blinded to each other. […] For Study 2 respiratory parameters (respiratory rate, peak flow, efficiency of cough) were also checked at baseline and 30 min after first dose on day 1, 2 and 3.
Treatment emergent adverse events (TEAEs) were defined as AEs that developed or worsened during the treatment period until day 6 following the end of study treatment.

[1] = Group 1A, one patient, three days after study medication
[2] = Group 1A: 1 day IM 0.18 mg/kg, adults, N=34
[3] = Group 1A: 1 day IM 0.18 mg/kg, adults
[4] = Group 1B: 3 days IM 0.18 mg/kg, adults, N=30
[5] = Group 1B: 3 days IM 0.18 mg/kg, adults
[6] = Group 1C: 1 day IV 0.14 mg/kg, adults, N=30
[7] = Group 1C: 1 day IV 0.14 mg/kg, adults
[8] = Group 1D: 3 days IM 0.18 mg/kg, children, N=19
[9] = Group 1D: 3 days IM 0.18 mg/kg, children

Cc1c(CCO)sc[n+]1CCCCCCCCCCCC[n+]1csc(CCO)c1C [SAR97276A]
ALT increase in the patient with cytolytic hepatitis [1]: 4.5 × upper limit than normal (ULN)
AST increase in the patient with cytolytic hepatitis [1]: 11 × ULN
Total bilirubin in the patient with cytolytic hepatitis [1]: ≥ 1.5 × ULN
Patients who did not complete study treatment [2]: 0
Patients with any TEAE [2]: 18 (52.9%)
TEAE: Arthralgia [2]: 1 (2.9%)
TEAE: Convulsion [2]: 0
TEAE: Cough [2]: 2 (5.9%)
TEAE: Cytolytic hepatitis [2]: 1 (2.9%)
TEAE: Dizziness [2]: 1 (2.9%)
TEAE: Eyelid pruritus [2]: 0
TEAE: Gastrointestinal disorders [2]: 3 (8.8%)
TEAE: General Disorders/Administration site disorders [2]: 3 (8.8%)
TEAE: Headache [2]: 4 (11.8%)
TEAE: Hypertension [2]: 0
TEAE: Malaria [2]: 2 (5.9%)
TEAE: Neck pain [2]: 2 (5.9%)
TEAE: Paraesthesia [2]: 0
TEAE: Pneumonia [2]: 1 (2.9%)
TEAE: Pruritus [2]: 0
TEAE: Rhinitis [2]: 2 (5.9%)
TEAE: Thrombocytopenia [2]: 0
TEAE: Urticaria [2]: 1 (2.9%)
TEAE: Vertigo [2]: 2 (5.9%)
QTc interval - change from baseline Borderline: Incr. from B 30-60 ms [3]: 0/33
QTc interval - change from baseline Prolonged: Incr. from B > 60 ms [3]: 0/33
QTc interval Prolonged: > 450 ms (m); > 470 ms (f) [3]: 0/33
QTc interval ≥ 500 ms [3]: 0/33
Further patients with an elevated AST (> 3 x ULN), apart from the SAE patient (Group 1A: adults, single IM dose): one
Patients who did not complete study treatment [4]: 0
Patients with any TEAE [4]: 18 (60%)
Patients with any serious AE [4]: 0
TEAE: Bradycardia [4]: 0
TEAE: Convulsion [4]: 0
TEAE: Cough [4]: 2 (6.7%)
TEAE: Cytolytic hepatitis [4]: 0
TEAE: Dizziness [4]: 1 (3.3%)
TEAE: Eyelid pruritus [4]: 0
TEAE: Gastrointestinal disorders [4]: 7 (23.3%)
TEAE: General Disorders/Administration site disorders [4]: 1 (3.3%)
TEAE: Headache [4]: 4 (13.3%)
TEAE: Hypertension [4]: 1 (3.3%)
TEAE: Malaria [4]: 0
TEAE: Neck pain [4]: 1 (3.3%)
TEAE: Paraesthesia [4]: 1 (3.3%)
TEAE: Pneumonia [4]: 0
TEAE: Pruritus [4]: 1 (3.3%)
TEAE: Rhinitis [4]: 0
TEAE: Tachycardia [4]: 1 (3.3%)
TEAE: Thrombocytopenia [4]: 0
TEAE: Urticaria [4]: 0
TEAE: Vertigo [4]: 2 (6.7%)
QTc interval - change from baseline Borderline: Incr. from B 30-60 ms [5]: 0/30
QTc interval - change from baseline Prolonged: Incr. from B > 60 ms [5]: 0/30
QTc interval Prolonged: > 450 ms (m); > 470 ms (f) [5]: 0/30
QTc interval ≥ 500 ms [5]: 0/30
Patients who did not complete study treatment [6]: 0
Patients with any TEAE [6]: 14 (46.7%)
Patients with any serious AE [6]: 0
TEAE: Arthralgia [6]: 1 (3.3%)
TEAE: Bradycardia [6]: 0
TEAE: Convulsion [6]: 0
TEAE: Cough [6]: 1 (3.3%)
TEAE: Cytolytic hepatitis [6]: 0
TEAE: Dizziness [6]: 2 (6.7%)
TEAE: Eyelid pruritus [6]: 0
TEAE: Gastrointestinal disorders [6]: 1 (3.3%)
TEAE: General Disorders/Administration site disorders [6]: 0
TEAE: Headache [6]: 3 (10%)
TEAE: Hypertension [6]: 0
TEAE: Malaria [6]: 0
TEAE: Neck pain [6]: 0
TEAE: Paraesthesia [6]: 0
TEAE: Pneumonia [6]: 0
TEAE: Pruritus [6]: 0
TEAE: Rhinitis [6]: 0
TEAE: Tachycardia [6]: 0
TEAE: Thrombocytopenia [6]: 0
TEAE: Urticaria [6]: 0
TEAE: Vertigo [6]: 0
QTc interval - change from baseline Prolonged: Incr. from B > 60 ms [7]: 0/30
QTc interval Prolonged: > 450 ms (m); > 470 ms (f) [7]: 0/30
QTc interval ≥ 500 ms [7]: 0/30
Patients with any TEAE [8]: 11 (57.9%)
TEAE: Arthralgia [8]: 0
TEAE: Bradycardia [8]: 0
TEAE: Convulsion [8]: 1 (5.3%)
TEAE: Cough [8]: 1 (5.3%)
TEAE: Cytolytic hepatitis [8]: 0
TEAE: Dizziness [8]: 0
TEAE: Eyelid pruritus [8]: 1 (5.3%)
TEAE: Gastrointestinal disorders [8]: 5 (26.3%)
TEAE: General Disorders/Administration site disorders [8]: 1 (5.3%)
TEAE: Headache [8]: 3 (15.8%)
TEAE: Hypertension [8]: 0
TEAE: Malaria [8]: 0
TEAE: Neck pain [8]: 0
TEAE: Paraesthesia [8]: 0
TEAE: Pneumonia [8]: 0
TEAE: Pruritus [8]: 0
TEAE: Rhinitis [8]: 0
TEAE: Tachycardia [8]: 0
TEAE: Urticaria [8]: 0
TEAE: Vertigo [8]: 0
QTc interval - change from baseline Borderline: Incr. from B 30-60 ms [9]: 0/18
QTc interval - change from baseline Prolonged: Incr. from B > 60 ms [9]: 0/18
QTc interval Prolonged: > 450 ms (m); > 470 ms (f) [9]: 0/18
QTc interval ≥ 500 ms [9]: 0/18
Deaths (Study 1): No deaths
ECG abnormalities, clinical significance (Study 1): No clinical significant abnormalities
Ophthalmologic disorders possibly related to SAR97276A (Study 1): No ophthalmologic disorders
Participants with alkaline phosphatase elevated (> 1.5 x ULN) (Study 1): 19
SAEs regarded as related to SAR97276A by the investigators (Study 1): None
Tolerability (Study 1): well tolerated
Patients with a serious adverse event (SAE), total (Study 1, all groups): four
Patients who experienced a TEAE, all cohorts (Study 1, out of 113 patients): 61 (54%)
